Legend:
Type in all cases: cell-based
[1] = tested on: HepG2 cells; test: Cell viability in the presence of a mitochondrial inhibitor (rotenone 10 μM); settings: Homo sapiens, HepG2, 48 h, read-out: CELL VIABILITY [%]
Procedure: (§1) Cytoprotection of HepG2 cells by naphthoquinones was quantified in the presence of the mitochondrial toxin, rotenone. Briefly, HepG2 cells were seeded in 96-well plates at 5000 cells/well in DMEM with 0.3 g/l glucose, 10% FBS and Penicillin-Streptomycin-Glutamine. After overnight incubation under standard conditions, cells were treated with the test compounds (10 μM) for 2 days before cells were challenged with 1 μM rotenone in the presence of 10 μM test compounds in Hank's balanced salt solution (HBSS) for 6 hours. This was followed by post-incubation for an additional 18 hours with only 10 μM test compounds in HBSS. For measurement of cell viability, cells were washed with 100 μL PBS twice and then lysed using 40 μL lysis solution (4 mM EDTA, 0.2% Triton X-100) for 5 min at room temperature (RT) on an orbital shaker at 200 rpm. Then 10 μL of the lysate was mixed with 90 μL of enzyme-substrate mixture (as described above) in a white 96 well plate and luminescence was measured immediately using a plate-reader (Fluoroscan Ascent, Thermo Scientific). The data is expressed as % viability compared to the untreated (no-rotenone) control.
The cytoprotective effects of representative compounds of Formula (I) were further examined in vitro in response to rotenone toxicity at (10 μM). […] Cells were treated with the representative compounds of Formula (I) compounds (10 μM) for 2 days before cells were challenged with 10 μM rotenone.
Vitamin K, Menadione and Idebenone were used as comparative controls.

[2] = tested on: HepG2 cells; test: Acute ATP rescue assay (impaired mitochondrial function, rotenone); settings: Homo sapiens, 1 h; HepG2; 1 μM quinones with rotenone 10 μM, 60 minutes, glucose-free DMEM; % ATP compared to untreated (no-rotenone) control
Procedure: HepG2 cells were seeded at a density of 5000 cells per well in a 96-well plate and incubated for 24 hours in DMEM with 0.3 g/l glucose, 10% FBS and Penicillin-Streptomycin-Glutamine. Cells were treated with 1 μM quinones in presence or absence of rotenone (10 μM), for 60 minutes in glucose-free DMEM ATP levels were quantified using luminescence from the ATP-dependent enzymatic oxidation of luciferin by luciferase. Cells were lysed in a volume of 40 μl (4 mM EDTA, 0.2% Triton X-100) for five minutes at room temperature (RT) on an orbital shaker at 200 rpm. […] Luminescence was quantified immediately using a multimode plate reader (Fluoroscan Ascent, Thermo Scientific). ATP levels were standardized to protein levels using a commercial BCA assay (Protein DC; BioRad) and changes were calculated as percentage relative to levels of DMSO-treated control cells. Data is expressed as % ATP compared to the untreated (no-rotenone) control.
Vitamin K, menadione and idebenone were used as comparative controls. DMSO was used as a control.

[3] = tested on: HepG2 cells; test: Rescue of cell viability in the presence of a mitochondrial inhibitor (rotenone 1 μM); settings: Homo sapiens, HepG2
Procedure: as §1
The extent of protection of cellular viability against a rotenone challenge of representative compounds of Formula (I) is shown below in Table 5. Vitamin K, Menadione and Idebenone were used as comparative controls. DMSO was used as a control.

[4] = tested on: HepG2 cells; test: Extracellular lactate levels, enzyme-linked colorimetric assay; settings: HepG2 culture medium, 25 mM glucose, supernatant after 48 h, standardized to protein
Procedure: Lactate concentrations in culture medium were determined by an enzyme-linked colorimetric assay. Briefly, 150,000 HepG2 cells were seeded in normal growth media (DMEM, 10% FCS, Pen/Strep) in each well of a 6-well plate (Life Science, USA) and incubated for 24 h. The media was replaced with growth media containing (25 mM glucose,) with and without test compounds. Three untreated wells containing only cells were considered the experimental baseline control and all compounds were tested in three different wells simultaneously. Supernatants were collected after 48 h and transferred into 96-well format. After the addition of 90 μl of reaction buffer (10 mM KH2PO4 pH 7.8, 1 mg/ml BSA, 0.5 mM PMS, 2 mM EDTA, 0.6 mM DCPIP, 0.8 mM NAD+, 5 U/ml glutamate-pyruvate-transaminase, 1.5 mM glutamate, 12.5 U/ml lactate dehydrogenase) the plate was incubated at 30° C. inside a multimode plate reader (Multiscan Go, Thermo Scientific) and absorbance was measured at 600 nm over a period of 100 minutes. A standard curve was generated using media spiked with known lactate concentrations. Finally, protein levels were quantified and the lactate concentration of each well was standardized to its protein content and was then expressed as % of control.
The extent of lactate reduction in the cell culture media by the test compounds of the subject invention and the Comparative Compounds vitamin K, menadione and idebenone is shown below in Table 6.

SMILES: CC1=C(CCCC(=O)N[C@H](Cc2ccccc2)C(=O)O)C(=O)c2ccccc2C1=O [UTA #94]
- viability at 10 µM [1]: 71.7%

SMILES: CC1=C(CCCC(=O)N[C@@H](Cc2ccc(O)cc2)C(=O)OC(C)(C)C)C(=O)c2ccccc2C1=O [UTA #55]
- activity at 1 µM [2]: 94.8%
- viability at 10 µM [1]: 78.6%

SMILES: CC1=C(CCCC(=O)N2CCC[C@H]2C(=O)O)C(=O)c2ccccc2C1=O [UTA #43, (S)-1-(4-(3-methyl-1,4-naphthoquinone-2-yl)butanoyl)pyrrolidine-2-carboxylic Acid]
- viability at 10 µM [3]: 92.7%
- viability at 10 µM [1]: 92.7%

SMILES: CCCCCCCC1=C(C)C(=O)c2ccccc2C1=O [UTA #21]
- Extracellular lactate [% control] [4]: 75.6 % control

SMILES: COC(=O)[C@@H]1C[C@@H](O)CN1C(=O)CCCC1=C(C)C(=O)c2ccccc2C1=O [UTA #93]
- viability at 10 µM [1]: 74.4%

SMILES: CC1=C(CCCC(=O)N[C@@H](CO)Cc2ccccc2)C(=O)c2ccccc2C1=O [UTA #78]
- viability at 10 µM [1]: 80%

SMILES: CC1=C(CCC2CCCC2)C(=O)c2ccccc2C1=O [UTA #22]
- Extracellular lactate [% control] [4]: 73 % control

SMILES: CC1=C(CCCCCC(=O)N[C@H](CO)Cc2ccccc2)C(=O)c2ccccc2C1=O [UTA #84]
- activity at 1 µM [2]: 90.4%
- viability at 10 µM [1]: 74.4%

SMILES: COC(=O)C(Cc1ccccc1)NC(=O)CCCC1=C(C)C(=O)c2ccccc2C1=O (stereo in doubt) [UTA #35, (R)-methyl-2(4-(3-methyl-1,4-naphthoquinone-2-yl)butamido)-3-phenylpropanoate]
- viability at 10 µM [1]: 76.2%

SMILES: CC1=C(CCCCC(=O)N[C@@H](Cc2ccccc2)C(=O)OC(C)(C)C)C(=O)c2ccccc2C1=O [UTA #71]
- activity at 1 µM [2]: 92.2%
- viability at 10 µM [1]: 70.5%

SMILES: CCCCNC(=O)CCCC1=C(C)C(=O)c2ccccc2C1=O [UTA #91]
- viability at 10 µM [3]: 82%
- viability at 10 µM [1]: 82%

SMILES: CC1=C(CCCCCC(=O)N[C@@H](Cc2ccccc2)C(=O)O)C(=O)c2ccccc2C1=O [UTA #76]
- viability at 10 µM [1]: 68.1%

SMILES: O=C(CCCC1=CC(=O)c2ccccc2C1=O)N[C@@H](Cc1ccccc1)C(=O)O [UTA #117]
- viability at 10 µM [3]: 80.3%
- viability at 10 µM [1]: 80.3%

SMILES: CC1=C(CCCC(=O)NCCc2ccc(O)cc2)C(=O)c2ccccc2C1=O [UTA #74, N-(4-hydroxyphenethyl)-4-(3-methyl-1,4-naphthoquinone-2-yl)butanamide]
- viability at 10 µM [3]: 91.7%
- activity at 1 µM [2]: 101%
- viability at 10 µM [1]: 91.7%

SMILES: CC1=C(CCCC(=O)N[C@H](CO)c2ccccc2)C(=O)c2ccccc2C1=O [UTA #81]
- viability at 10 µM [3]: 83.8%
- viability at 10 µM [1]: 83.8%

SMILES: CC1=C(CCCC(=O)N[C@H](CO)Cc2ccccc2)C(=O)c2ccccc2C1=O [UTA #62, (S)—N-(1-hydroxy-3-phenylpropan-2-yl)-4-(3-methyl-1,4-naphthyoquinone-2-yl)butanamide]
- viability at 10 µM [3]: 93.1%
- activity at 1 µM [2]: 91.2%
- viability at 10 µM [1]: 93.1%

SMILES: CC1=C(CCC(=O)N[C@@H](Cc2ccccc2)C(=O)O)C(=O)c2ccccc2C1=O [UTA #66]
- Extracellular lactate [% control] [4]: 66 % control
- viability at 10 µM [1]: 66.9%

SMILES: CC1=C(CCCC(=O)N[C@@H](CC(C)C)C(=O)O)C(=O)c2ccccc2C1=O [UTA #54]
- viability at 10 µM [3]: 98.7%
- Extracellular lactate [% control] [4]: 79.1 % control
- viability at 10 µM [1]: 98.7%

SMILES: CC1=C(CCCC(=O)NCCc2c[nH]c3ccccc23)C(=O)c2ccccc2C1=O [UTA #73, N-(2-(1H-indol-3-yl)ethyl)-4-(3-methyl-1,4-naphthoquinone-2-yl)butanamide]
- viability at 10 µM [3]: 86.2%
- activity at 1 µM [2]: 96.1%
- viability at 10 µM [1]: 86.2%

SMILES: CC1=C(CCCCC(=O)O)C(=O)c2ccccc2C1=O [UTA #67, 25-(3-methyl-1,4-naphthoquinone-2-yl)pentanoic acid]
- activity at 1 µM [2]: 97.1%
- Extracellular lactate [% control] [4]: 67.6 % control
- viability at 10 µM [1]: 74.9%

SMILES: CC1=C(CCCCCC(=O)N[C@@H](Cc2ccccc2)C(=O)OC(C)(C)C)C(=O)c2ccccc2C1=O [UTA #75]
- activity at 1 µM [2]: 95.4%
- viability at 10 µM [1]: 61.4%

SMILES: CC1=C(CCCCCC(=O)NCCc2ccc(O)cc2)C(=O)c2ccccc2C1=O [UTA #89]
- viability at 10 µM [3]: 85.2%
- viability at 10 µM [1]: 85.2%

SMILES: CC1=C(CCCCC(=O)NCCc2ccc(O)cc2)C(=O)c2ccccc2C1=O [UTA #88]
- viability at 10 µM [3]: 91.8%
- viability at 10 µM [1]: 91.8%

SMILES: CCCCC1=C(C)C(=O)c2ccccc2C1=O [UTA #19]
- Extracellular lactate [% control] [4]: 65.3 % control

SMILES: CC1=C(CCC(=O)N[C@@H](Cc2ccccc2)C(=O)OC(C)(C)C)C(=O)c2ccccc2C1=O [UTA #65]
- activity at 1 µM [2]: 91.1%
- viability at 10 µM [1]: 60.1%

SMILES: O=C(CCCC1=CC(=O)c2ccccc2C1=O)N[C@H](CO)Cc1ccccc1 [UTA #115]
- viability at 10 µM [3]: 80.8%
- viability at 10 µM [1]: 80.8%

SMILES: COC(=O)[C@@H](NC(=O)CCCC1=C(C)C(=O)c2ccccc2C1=O)c1ccccc1 [UTA #95]
- viability at 10 µM [3]: 86.1%
- viability at 10 µM [1]: 86.1%

SMILES: CC1=C(CCCC(=O)N2CCC[C@H]2CO)C(=O)c2ccccc2C1=O [UTA #61, (S)-2-(4-(2-(hydroxymethyl)pyrrolidin-1-yl)-4-oxobutyl)-3-methyl-1,4-naphthoquinone]
- viability at 10 µM [3]: 101%
- viability at 10 µM [1]: 101%

SMILES: CC1=C(CCCC(=O)N2CCC[C@H]2C(=O)OC(C)(C)C)C(=O)c2ccccc2C1=O [UTA #42, (S)-tert-butyl-1-(4-(3-methyl-1,4-naphthoquinone-2-yl)butanoyl)pyrrolidine-2-carboxylate]
- viability at 10 µM [1]: 64.7%

SMILES: CC1=C(CCCC(=O)N[C@@H](CO)c2ccccc2)C(=O)c2ccccc2C1=O [UTA #80]
- viability at 10 µM [3]: 87.6%
- viability at 10 µM [1]: 87.6%

SMILES: CC1=C(CCCCC(=O)N[C@@H](Cc2ccccc2)C(=O)O)C(=O)c2ccccc2C1=O [UTA #72]
- viability at 10 µM [3]: 90.7%
- activity at 1 µM [2]: 84.8%
- viability at 10 µM [1]: 90.7%

SMILES: COC(=O)[C@H](NC(=O)CCCC1=C(C)C(=O)c2ccccc2C1=O)c1ccccc1 [UTA #97]
- viability at 10 µM [3]: 84.8%
- viability at 10 µM [1]: 84.8%

SMILES: CC1=C(CCCC(=O)NCC(=O)OC(C)(C)C)C(=O)c2ccccc2C1=O [UTA #47]
- viability at 10 µM [1]: 74.4%

SMILES: COc1ccc(CC2=C(C)C(=O)c3ccccc3C2=O)cc1OC [UTA #20]
- Extracellular lactate [% control] [4]: 78.6 % control

SMILES: CC1=C(CCC(C)O)C(=O)c2ccccc2C1=O (centres unmarked) [UTA #24]
- viability at 10 µM [1]: 72.8%

SMILES: O=C(CCCC1=CC(=O)c2ccccc2C1=O)NCCc1ccc(O)cc1 [UTA #113]
- viability at 10 µM [1]: 73.4%

From patent publication US10934253B2, “Therapeutic compounds and methods” (UNIVERSITY OF TASMANIA, priority 2017, dated 2021)
